Values after ≈ are worked out from the molar mass of the structure shown. Like-named read-outs stand apart in the source and are kept apart here.
Key:
[1] = target: T1, E. coli TrxR (Escherichia coli, UniProt P0A9P4); experiment: Kinetic parameters (substrate) with E. coli TrxR; assay type: biochemical
[2] = target: T2, Mammalian TrxR (Homo sapiens, UniProt Q16881); experiment: Kinetic parameters with mammalian TrxR; assay type: biochemical; conditions: sulphur analogues
T2 sequence (Q16881 151-649 limits assumed): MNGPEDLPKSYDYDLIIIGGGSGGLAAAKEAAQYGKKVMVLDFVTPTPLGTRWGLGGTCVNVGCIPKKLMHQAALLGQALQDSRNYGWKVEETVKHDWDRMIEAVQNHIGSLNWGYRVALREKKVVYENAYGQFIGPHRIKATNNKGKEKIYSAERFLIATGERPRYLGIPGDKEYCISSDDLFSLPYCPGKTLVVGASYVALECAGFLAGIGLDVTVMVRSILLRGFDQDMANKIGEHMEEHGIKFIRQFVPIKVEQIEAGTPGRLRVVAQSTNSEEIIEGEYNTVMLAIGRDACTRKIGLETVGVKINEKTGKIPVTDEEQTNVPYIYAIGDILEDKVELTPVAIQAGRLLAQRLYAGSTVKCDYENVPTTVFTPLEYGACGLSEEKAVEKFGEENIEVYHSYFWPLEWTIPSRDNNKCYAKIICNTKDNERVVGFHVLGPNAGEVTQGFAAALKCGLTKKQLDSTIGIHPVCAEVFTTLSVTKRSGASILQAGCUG

[3] = target: T1, E. coli TrxR; experiment: E. coli TrxR inhibition, thioredoxin dependent DTNB reduction assay; assay type: biochemical; conditions: for IC50: DTNB assay, 100 nM TrxR, 2 μM Trx, 240 μM NADPH, 1 mM DTNB, read-out: IC50 for E. coli TrxR; for Ki / Ki for E. coli TrxR: Dixon plot, 6 nM TrxR, Trx 1, 2 or 4 μM; for Ki: read-out: Ki for E. coli TrxR
Description: Further we examined the effect of ebselen in the reduction of disulfide by E. coli Trx and TrxR using both DTNB and insulin as substrates.
All the benzisoselenazol-3(2H)-one and bisbenzisoselenazol-3(2H)-one derivatives were tested as potential E. coli TrxR inhibitors by standard DTNB assay. […] The reactions were started by adding 1 mM DTNB to the mixture of 100 nM TrxR, 2 μM Trx, 240 μM NADPH, and different concentration of inhibitor (1-40 μM). […] The reactions were started by adding 6 nM TrxR at room temperature. Inhibition constants (Ki) for all the compounds were measured from Dixon plot, which plots 1/v versus […], I=Inhibitor concentration).

[4] = target: T2, Mammalian TrxR; conditions: from ref (3) / (32); cited from earlier work
[5] = target: T1, E. coli TrxR; experiment: E. coli TrxR inhibition, thioredoxin dependent DTNB reduction assay; assay type: biochemical; conditions: Lineweaver-Burk plots, reduction of DTNB; read-out: Ki (dissociation constant of inhibitor-TrxR complex), competitive inhibition of E. coli TrxR
[6] = target: E. coli Trx-(SH)2 (Escherichia coli, UniProt P0AA25); conditions: fluorescence spectroscopy, ref (32); cited from earlier work
E. coli Trx-(SH)2, sequence (P0AA25 whole entry): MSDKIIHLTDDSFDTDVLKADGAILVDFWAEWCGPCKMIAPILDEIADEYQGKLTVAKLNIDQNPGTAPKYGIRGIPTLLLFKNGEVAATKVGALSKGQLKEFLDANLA

[7] = test system: Staphylococcus aureus; conditions: ref (10); cited from earlier work
[8] = test system: E. coli; assay type: cell-based, Escherichia coli
[9] = test system: H. pylori strains; experiment: MIC against H. pylori strains
[10] = target: H. pylori TrxR (Helicobacter pylori, UniProt P56431); experiment: H. pylori TrxR activity, insulin reduction assay; conditions: 4, 20, and 40 μM
H. pylori TrxR, sequence (P56431 whole entry): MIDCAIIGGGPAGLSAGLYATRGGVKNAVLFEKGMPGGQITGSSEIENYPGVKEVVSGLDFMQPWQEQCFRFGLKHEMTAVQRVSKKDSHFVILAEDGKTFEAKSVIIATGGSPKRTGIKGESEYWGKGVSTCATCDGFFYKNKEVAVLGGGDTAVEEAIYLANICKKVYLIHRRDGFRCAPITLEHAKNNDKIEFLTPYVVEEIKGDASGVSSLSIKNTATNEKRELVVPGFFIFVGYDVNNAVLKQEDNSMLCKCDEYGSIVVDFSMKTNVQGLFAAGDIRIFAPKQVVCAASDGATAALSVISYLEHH

[11] = target: T3, recombinant rat TrxR (Rattus norvegicus, UniProt O89049); experiment: Inhibition of mammalian (recombinant rat) TrxR
T3 sequence (O89049 1-499): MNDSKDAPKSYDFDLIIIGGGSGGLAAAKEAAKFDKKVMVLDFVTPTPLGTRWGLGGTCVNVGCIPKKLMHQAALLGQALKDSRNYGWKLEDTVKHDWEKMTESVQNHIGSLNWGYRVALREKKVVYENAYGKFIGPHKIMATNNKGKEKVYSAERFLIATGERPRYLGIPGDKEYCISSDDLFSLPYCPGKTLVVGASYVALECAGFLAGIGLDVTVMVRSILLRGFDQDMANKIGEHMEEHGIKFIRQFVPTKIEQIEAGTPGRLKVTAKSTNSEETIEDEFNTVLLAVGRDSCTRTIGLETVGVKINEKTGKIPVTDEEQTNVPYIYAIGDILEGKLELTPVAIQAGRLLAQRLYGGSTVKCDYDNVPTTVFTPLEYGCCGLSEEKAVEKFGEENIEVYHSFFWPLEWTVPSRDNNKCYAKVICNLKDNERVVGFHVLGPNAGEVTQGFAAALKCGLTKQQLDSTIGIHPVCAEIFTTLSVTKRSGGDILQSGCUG

[12] = test system: HEK 293T cells; experiment: HEK 293T cells growth (cytotoxicity); assay type: cell-based; conditions: Homo sapiens, HEK-293T; read-out: IG50 for HEK 293T
[13] = Glutathione peroxidase (GPx) activity of the compounds; assay type: biochemical; conditions: relative; EbSe 6 = 1
[14] = test system: wild type DHB4 E. coli; experiment: Inhibition of bacterial growth (MIC), wild type DHB4 E. coli; conditions: Escherichia coli, DHB4E.COLI, read-out: MIC for wild type DHB4 E. coli
Description: (§1) Here E. coli DHB4 strains wt, gshA^−, gor^−, oxyR^− were used as the model to test the antibiotics activity of these ebselen derivatives.

[15] = test system: gshA^− DHB4 E. coli; experiment: Inhibition of bacterial growth (MIC), gshA^− DHB4 E. coli; conditions: Escherichia coli, read-out: MIC for gshA^− DHB4 E. coli
Description: as §1

[16] = test system: Gor DHB4 E. coli; experiment: Inhibition of bacterial growth (MIC), Gor DHB4 E. coli; conditions: Escherichia coli, DHB4E.COLI, read-out: MIC for Gor DHB4 E. coli
Description: as §1

T1 sequence (P0A9P4 whole entry): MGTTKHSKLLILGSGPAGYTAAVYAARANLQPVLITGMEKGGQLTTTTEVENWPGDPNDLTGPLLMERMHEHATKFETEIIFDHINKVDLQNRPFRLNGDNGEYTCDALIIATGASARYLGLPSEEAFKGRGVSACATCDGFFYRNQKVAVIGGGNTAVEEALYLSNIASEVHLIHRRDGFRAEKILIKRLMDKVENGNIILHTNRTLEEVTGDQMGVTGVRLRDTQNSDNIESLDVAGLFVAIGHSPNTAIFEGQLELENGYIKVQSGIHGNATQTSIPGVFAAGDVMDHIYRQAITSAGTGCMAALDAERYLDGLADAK

| Structure (SMILES) | IC50 [3] [µM] | Ki [3] [µM] | IC50 [11] [µM] | IC50 [12] [µM] | Relative GPx activity [13] | other results |
| --- | --- | --- | --- | --- | --- | --- |
| O=C(Nc1ccccc1)c1ccccc1SSc1ccccc1C(=O)Nc1ccccc1 [(EbS)2] | – | – | – | – | – | Km [1]: 27.6 µM; kcat, E. coli TrxR [1]: 1.67 s⁻¹; Km [2]: 47 µM; kcat, mammalian TrxR [2]: 25 s⁻¹ |
| O=C(Nc1ccccc1)c1ccccc1[Se][Se]c1ccccc1C(=O)Nc1ccccc1 [(EbSe)2] | – | – | – | – | – | inhibition of E. coli TrxR (in words) [3]: strongly inhibited; Km [4]: 40 µM; kcat, mammalian TrxR [4]: 1.32 s⁻¹; Ki [5]: 0.46 ± 0.05 µM; second-order rate constant of direct reduction by reduced E. coli Trx [6]: 1700 M⁻¹ s⁻¹ |
| O=c1c2ccccc2sn1-c1ccccc1 [EbS] | – | – | – | – | – | inhibition of E. coli TrxR (in words) [3]: not inhibitors; kcat, E. coli TrxR [1]: 11.7 s⁻¹; Km [2]: 2.5 µM; kcat, mammalian TrxR [2]: 23.33 s⁻¹; antibacterial activity (in words) [7]: lost the antibacterial activity; enhancement of the toxicity of silver toward bacteria [8]: less enhancement; MIC ([9]; NCTC11637 strain): 1.56 µg/mL (≈ 6.86 µM); MIC ([9]; strain YS-16): 0.39 µg/mL (≈ 1.72 µM); H. pylori TrxR activity [10]: inhibited |
| NCCn1[se]c2ccccc2c1=O [EbSe5] | 2.12 | 0.035 | – | – | – | – |
| O=c1c2cccnc2[se]n1-c1ccc(Cl)cc1 [EbSe19] | 3 | 0.5 | – | – | – | – |
| O=c1[nH][se]c2ccccc12 [EbSe 2] | 15 | 1 | > 10 | 95 | 0.97 | Ki for E. coli TrxR [3]: Not detected |
| Cn1[se]c2ccccc2c1=O [EbSe 3] | 15 | – | > 10 | 100 | 1.2 | Ki for E. coli TrxR [3]: Not detected |
| CC(C)(C)n1[se]c2ccccc2c1=O [EbSe 4] | 15 | – | > 10 | 75 | 1.1 | Ki for E. coli TrxR [3]: Not detected; inhibition of mammalian TrxR (in words) [11]: some activity |
| O=c1c2ccccc2[se]n1-c1ccc(Cl)cc1 [EbSe 7] | 7 | 0.55 | > 10 | 120 | 0.64 | MIC [14]: 34 µM (≈ 10.5 µg/mL); MIC [15]: 20 µM (≈ 6.17 µg/mL); MIC [16]: 23 µM (≈ 7.1 µg/mL) |
| Cc1cc(Cl)ccc1-n1[se]c2ccccc2c1=O [EbSe 8] | 6 | 0.25 | > 10 | 80 | 0.67 | MIC [14]: 47 µM (≈ 15.2 µg/mL); MIC [15]: 13 µM (≈ 4.19 µg/mL); MIC [16]: 24 µM (≈ 7.74 µg/mL) |
| O=C(O)c1ccccc1-n1[se]c2ccccc2c1=O [EbSe 9] | 7.5 | 1.2 | 0.8 | > 160 | 2.1 | MIC [14]: 49 µM (≈ 15.6 µg/mL); MIC [15]: 24 µM (≈ 7.64 µg/mL); MIC [16]: 31 µM (≈ 9.86 µg/mL) |

— patent US11013730B1, “Composition comprising selenazol or thiazalone derivatives and silver and method of treatment therewith” (Thioredoxin Systems AB, priority 2014, dated 2021)
